Measured values as given in PubChem BioAssay AID1324 (NMMLSC, 2008).
Active and inactive are the calls of the source. No rule for the calls is given here.

target: glutathione S-transferase (GST-GSH binding); assay: GST–glutathione interaction disruption – biochemical, multiplex beads, flow cytometry, HPSMTB buffer, profiling panel (AID 1324); details: multiplex bead flow cytometry, MCF;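 also: glutathione beads loaded with GST-green fluorescent protein and no fluorescent Bim peptide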

Row | Compound | EC50
1 | COc1cc2[nH]c(=S)nc(NCC3CCCO3)c2cc1OC (centres undefined) | inactive
2 | COCCCNc1nc(=S)[nH]c2cc(OC)c(OC)cc12 | 5.35 µM
3 | COc1cccc(/C=N/Nc2nn3cnnc3c3ccccc23)c1 | 7.28 µM
4 | Cc1cccc(/C=N/N(CCO)C2=NS(=O)(=O)c3ccccc32)c1 | inactive
5 | CCN=c1scc(C)n1/N=C/c1ccc(O)c(O)c1O | inactive
6 | O=C1c2ccccc2-c2onc3ccc(NCCCn4ccnc4)c1c23 | inactive
7 | CN(C)[C@@H]1C(=O)C(C(=O)NCN2CCCC2)=C(O)[C@@]2(O)C(=O)C3=C(O)c4c(O)cccc4[C@@](C)(O)C3CC12 (some centres undefined) | inactive
8 | COc1cc(OC)c([N+](=O)[O-])cc1/C=N/NC(=O)c1ccncc1 | inactive
9 | COc1ccc(C2=Nn3c(nnc3-c3ccco3)SC2)cc1OC | 4.6 µM

same assay, conditions: multiplex bead flow cytometry, MCF, hits give high values, concentration not given here

Row | Compound | percent span inhibition
10 | CC(=O)Nc1ccc2nc(CN3CCN(CC(C)C)C(CCO)C3)ccc2c1 (centres undefined) | inactive
11 | CCOc1ccccc1C(=O)NC1CC2CCCC(C1)N2C1CC1 (centres undefined) | inactive
12 | COc1ccc(CN(CC(=O)NC2CCCC2)C(=O)CCC(=O)Nc2cc(C)on2)cc1 | inactive
13 | CCOC(=O)c1c(NC(=O)c2ccccc2N(C)S(=O)(=O)c2ccccc2)sc2c1CCCC2 | inactive
14 | O=C1CCc2cc(S(=O)(=O)NCCCC(=O)N3CCN(Cc4ccc5c(c4)OCO5)CC3)ccc2N1 | inactive
15 | Cc1cc(-c2csc(N)n2)c(C)n1CCC(C)C | inactive
16 | CCOc1cc(C2Nc3cccc4cccc(c34)N2)ccc1O | inactive
17 | CC1=CC(=O)c2ccccc2C1=O | inactive
18 | Cc1ccc(NC(=S)N2CCn3cccc3C2c2cccnc2)cc1 (centres undefined) | inactive
19 | Cc1cccc(-n2c(-c3ccncc3)n[nH]c2=S)c1 | inactive
20 | Cc1cc(NC(=O)CCCC(=O)N(CC(=O)NC2CCCCC2)c2ccccc2)no1 | inactive
21 | CCN(CC)c1ccc(NC(=O)c2ccccc2)cc1S(=O)(=O)Nc1ccccc1OC | inactive
22 | COc1ccc(OC)c(NC(=O)CCCN2C(=S)NC(C)(C)CC2C)c1 (centres undefined) | inactive
23 | COc1ccc(OC)c(NC(=O)COC(=O)c2cc3c(s2)CCC3)c1 | inactive
24 | CCOc1cc(S(=O)(=O)N2CCCCC2)ccc1F | inactive
25 | O=C(NCc1ccccn1)c1ccc2nc(-c3ccco3)c(-c3ccco3)nc2c1 | inactive
26 | COC(=O)c1cccc(-n2c(C)cc(C=O)c2C)c1 | inactive
27 | O=C(O)C1=C[C@H](C2CC2)C[C@H](OCCCCO)O1 | inactive
28 | Cc1ccc2nc3c(cc(C(N)=S)c(=N)n3CCCOC(C)C)c(=O)n2c1 | inactive
29 | CCOC(=O)c1c(NC(C)=O)sc2c(O)c(Br)cc(Br)c12 | inactive
30 | O=C(CSc1nnc(-c2cccs2)n1Cc1ccco1)c1ccc2c(c1)OCO2 | inactive
31 | COC(=O)/C(=C/c1ccc(F)cc1)NC(C)=O | inactive
32 | Cc1ccc(-c2ccc(CCC(=O)O)n2NC(=O)c2cccs2)cc1 | inactive

Row | Compound | percent span inhibition
33 | O=C(/C=C\c1ccc(-c2ccccc2)o1)c1ccccc1 | inactive
34 | O=C(c1cc2ccccc2oc1=O)N(c1ccccc1)C1C=CS(=O)(=O)C1 (centres undefined) | inactive
35 | CCOCCOc1nc2c(c(=O)n(C)c(=O)n2C)n1CCc1ccccc1 | inactive
36 | Cc1ccc(-c2nc3c(c(=O)[nH]c(=O)n3Cc3ccccc3)n2Cc2ccccc2)o1 | inactive
37 | Cc1nn(-c2ccc(Cl)c(Cl)c2)c(C)c1C(=O)O | inactive
38 | C=CS(=O)(=O)c1sc(Cl)c(N2CCOCC2)c1[N+](=O)[O-] | inactive
39 | O=C(OCc1cnc(Cl)s1)c1cccc(Cl)c1Cl | inactive
40 | COc1ccc(NC(=O)c2sccc2SCc2cccc(C(F)(F)F)c2)cc1 | inactive
41 | O=C(/C=C/c1ccc(-c2ccccc2)o1)c1ccccc1 | inactive
42 | CN=c1scc(C)n1/N=C/c1ccc(O)c(O)c1O | inactive
43 | COCc1cc(CN2CCCC(CNC(=O)c3ccc(F)cc3)C2)ccc1OC (centres undefined) | inactive
44 | COc1ccc(NC(=O)c2c(F)cccc2F)cc1S(=O)(=O)Nc1ccc(Br)cc1 | inactive
45 | CC(CCc1ccccc1)NC(=O)C1CCN(S(=O)(=O)N2CCCCC2)CC1 (centres undefined) | inactive
46 | COc1ccccc1Oc1ccc2c(c1)C(=O)N(c1ccccc1)C2=O | inactive
47 | CN(C)c1ccc(C=C2C(=O)NC(=O)NC2=O)cc1[N+](=O)[O-] | inactive
48 | Clc1ccc2c(N/N=C/c3cccc(Br)c3)ccnc2c1 | inactive
49 | O=C(C1=NN[C@@H]2C(=O)N(c3cccc(F)c3)C(=O)[C@H]12)c1ccc2ccccc2n1 | inactive
50 | Cc1occc1C(=O)NNC(=S)NCc1ccccc1 | inactive
51 | CCOC(=O)C1(CC/C(C)=N\NC(N)=O)CC(C)(C)OC1=O (centres undefined) | inactive
52 | O=C1/C(=C/c2cccs2)Sc2ccccc21 | inactive
53 | Nc1ccc(Nc2nc(-c3ccncc3)cs2)cc1 | inactive
54 | C(=C\c1ccccc1)/CSc1nnc(-c2ccccn2)n1Cc1ccco1 | inactive
55 | O=C(CSc1nnc(-c2ccco2)n1Cc1ccccc1)c1ccccc1 | inactive

Row | Compound | percent span inhibition
56 | Cc1cccc(N2C(S)=C(C#N)C(=O)NC2c2cccs2)c1 (centres undefined) | inactive
57 | COc1ccc(NC(=O)/C(Cl)=C(/Cl)S(=O)Cc2ccccc2)cn1 (centres undefined) | inactive
58 | O=C1NC(=O)C(=Cc2ccc(-c3cc(Cl)ccc3[N+](=O)[O-])o2)C(=O)N1 | inactive
59 | COc1ccc(/C=C(/C(=O)c2cccs2)N2C=CC=CC2=C(C#N)C#N)cc1 | inactive
60 | Fc1ccccc1/C=C1\CCCC2=C1NC(=S)NC2c1ccccc1F (centres undefined) | inactive
61 | Cn1c(OCc2cccnc2)nc2c1c(=O)n(Cc1ccccc1)c(=O)n2C | inactive
62 | O=C1NC(=O)C2(Cc3c(nc4ccccn4c3=O)N3CCCCCC32)C(=O)N1Cc1ccccc1 (centres undefined) | inactive
63 | Cc1cc(-c2cc(-c3ccc(Cl)cc3)nc(N)c2C#N)co1 | inactive
64 | Cc1noc(C)c1COc1ccc(C(=O)Nc2cccnc2)cc1 | inactive
65 | CS(=O)(=O)NN1C(=O)c2ccccc2NC1c1cccc2cccnc12 (centres undefined) | inactive
66 | Cc1ccc(C(=O)C(C(=O)/C=C/c2ccccc2)=C2SCCCS2)cc1 | inactive
67 | CCn1c(C)c(/C=N/Nc2nc3ccccc3s2)c2ccccc21 | inactive
68 | CC(NC(=O)Nc1ccccn1)N1C(=O)C2C3C=CC(C3)C2C1=O (centres undefined) | inactive
69 | CCOc1ccc(N2C(=O)C(Cl)=C(Nc3ccccc3O)C2=O)cc1 | inactive
70 | CCOc1ccc(C2=Nn3c(nnc3-c3ccco3)SC2)cc1 | inactive
71 | CN(CCc1ccccn1)C(=O)CCC1CCCN(C(=O)NC2CCCCC2)C1 (centres undefined) | inactive
72 | CCc1nn2cc(C(=O)c3cc(C)ccc3O)cnc2c1-c1ccc(F)cc1 | inactive
73 | Cc1ccccc1OCC(=O)N/N=C/c1ccccn1 | inactive
74 | COc1ccc(CC(=O)Nc2ccccc2Oc2ccccc2)cc1 | inactive
75 | S=C(NCCc1ccccc1)NCCc1ccccc1 | inactive
76 | O=C(CSc1nc2ccsc2c(=O)n1Cc1ccc(C(=O)O)cc1)NCC1CCCO1 (centres undefined) | inactive
77 | O=C(Cc1ccccc1)N/N=C/c1cccn1-c1ccc([N+](=O)[O-])cc1 | inactive
78 | COc1cccc2c(SCC(=O)N/N=C/c3ccc(O)cc3O)cc(C)nc12 | inactive

Row | Compound | percent span inhibition
79 | O=C(O)c1ccccc1NSc1ccccc1[N+](=O)[O-] | inactive
80 | Cc1ccc(-c2cc(C(=O)Nc3cccnc3)c3ccccc3n2)o1 | inactive
81 | Cc1ccc(-n2nc(C)c(C(=O)O)n2)c(C)c1 | inactive
82 | Cc1[nH]n(C(N)=S)c(=O)c1N=Nc1ccc(S(=O)(=O)N2CCCCCC2)cc1 | inactive
83 | CS(=O)(=O)NN1C(=O)c2ccccc2NC1c1ccccc1 (centres undefined) | inactive
84 | COc1ccccc1Oc1ccc2c(c1)C(=O)N(c1cccc3ncccc13)C2=O | inactive
85 | Cc1ccc(NC(=O)c2cc(S(=O)(=O)NCCC3=CCCCC3)ccc2F)cc1F | inactive
86 | Cc1ccc(C)c(N2CCN(C(=S)Nc3ccc4nc(N5CCN(C)CC5)cc(C)c4c3)CC2)c1 | inactive
87 | O=C(O)CC/C(=C\c1cc([N+](=O)[O-])ccc1Cl)c1nc2ccccc2s1 | inactive
88 | Nc1ccc(N2CCN(CCCCN3C(=O)C4CCCN4C3=O)CC2)cc1 (centres undefined) | inactive
89 | COc1ccccc1-n1c(-c2ccc(Cl)cc2)c[nH]c1=S | inactive
90 | O=[N+]([O-])c1c(NCCCO)cc(Sc2nc3ccccc3s2)c2nonc12 | inactive
91 | O=C(N/N=C/c1ccncc1)c1cccc(NC(=O)c2ccccc2Cl)c1 | inactive
92 | COc1ccc(C2=Nn3c(nnc3-c3ccccn3)SC2)cc1OC | inactive
93 | CN(C)c1ccc(Nc2nc(-c3cccnc3)cs2)cc1 | inactive
94 | Cc1ccc(/C=C/C(=O)Nc2ccc([N+](=O)[O-])c(NC(=O)/C=C/c3ccc(C)o3)c2)o1 | inactive
95 | CCN1/C(=C/c2ccc3cc(C)cc(C)c3[n+]2CC)Sc2cc(C)ccc21 | inactive
96 | COC(=O)c1ccc(/C=N/NC(=O)CC(=O)NCc2cccnc2)cc1 | inactive
97 | COc1cccc2c(SCC(=O)N/N=C/c3ccccc3)cc(C)nc12 | inactive
98 | COc1ccc(CCNC(=O)c2ccc3nc(-c4ccco4)c(-c4ccco4)nc3c2)cc1OC | inactive
99 | Cc1nnc2ccc(-c3cccc(NC(=O)c4ccco4)c3)nn12 | inactive
